From patent US20140163044A1, “Compound Chemical Medicine Acting on Respiratory Disease, Preparation Process and Use Thereof” (HUNAN JIUDIAN PHARMACEUTICAL CO., LTD., priority 2011, published 2014)

Tests used:
[1] = test system: outpatients or inpatients with cough; assay: Trials for observing the clinical effect of the tablet in patients with cough; assay type: in vivo; details: 100 cases per group, oral, one tablet 3 times a day, 5-day course; for Efficacy: Ineffective: cough not improved or aggravated; for Efficacy: Improved: cough reduced 3 to 2 points or 2 to 1 points; for Efficacy: Effective: cough reduced to 1 point from 3 points; for Efficacy: Clinically controlled: symptoms disappeared completely
Experimental: Trials for observing the clinical effect of the tablet of the present invention was conducted in the People's Hospital of Yongshun County, Hunan Province.
300 outpatients or inpatients with cough caused by acute upper respiratory tract infection, acute tracheitis and bronchitis, community-acquired pneumonia, and acute exacerbation of chronic bronchitis were randomly divided into a treatment group […], 100 patients for each group. Medicines were administered following the double-blind double-dummy positive medicine parallel control method. The tablets of the present invention, the control medicine levodropropizine tablets or carbocisteine tablets were taken by each group, respectively. Each group orally takes the tablets 3 times a day, one tablet (including analog tablet) each time, for a 5-day course of treatment. Other antitussive or expectorant medicine was stopped during the administration. The patients' conventional indicators such as blood pressure, pulse rate, body temperature, respiration, etc.; symptoms of cough; chest x-ray; blood and urine routine tests; liver and kidney functions; adverse reaction records and electrocardiogram were recorded.
Criteria for evaluating the efficacy are as follows: clinically controlled: symptoms disappeared completely; effective: symptoms of cough reduced to 1 point from 3 points; improved: symptoms of cough reduced to 2 points from 3 points or reduced to 1 points from 2 points; ineffective: symptoms of cough were not improved or aggravated.

guinea pigs = assay: Antitussive effect in guinea pigs (induced cough 1 h or 4 h after oral administration); assay type: in vivo; details: for Effect on latent period of cough and cough times (in words): all dose groups; for Cough times before administration (in 5 min) / Latent period of cough / cough count: oral; for Cough times before administration (in 5 min): baseline before administration
Source text: The pharmacodynamic test for the pharmaceutical composition of the present invention: • 1. Studies on the Antitussive Effect
Medicines used in the test:
Test medicine: self-made tablets of the pharmaceutical composition comprising levodropropizine and carbocisteine by the inventors
Positive control medicine: levodropropizine tablets and carbocisteine tablets
150 guinea pigs (half male and half female) with a body mass of 300±25 g are taken and evenly divided into 15 groups, with 10 in each group. The administration group for the tablet of the present invention is divided into high dose group, medium dose group and low dose group, and the tablets are orally administered respectively; the administration groups for the positive control medicine levodropropizine is also divided into high dose group, medium dose group and low dose group. Each dose group is divided into two groups, respectively the group inducing cough at the first hour or the fourth hour after administration.

[2] = 60 mg/kg, four hours after administration
[3] = 60 mg/kg, one hour after administration
[4] = 30 mg/kg, four hours after administration
[5] = 30 mg/kg, one hour after administration
[6] = 120 mg/kg, four hours after administration
[7] = 120 mg/kg, one hour after administration

SMILES | Effective rate [1] [%] | Efficacy: Ineffective [1] [cases] | Efficacy: Improved [1] [cases] | Efficacy: Effective [1] [cases] | Efficacy: Clinically controlled [1] [cases] | Effect on latent period of cough and cough times (in words) (guinea pigs) | Cough times before administration (in 5 min) (guinea pigs; 60 mg/kg group, 1 h group) | Cough times before administration (in 5 min) (guinea pigs; 60 mg/kg group, 4 h group) | Latent period of cough (guinea pigs; [2]) [s] | cough count (guinea pigs; [2]) | Latent period of cough (guinea pigs; [3]) [s] | cough count (guinea pigs; [3]) | further results
N[C@@H](CSCC(=O)O)C(=O)O [Carbocisteine tablet, carbocisteine] | 86 | 14 | 40 | 18 | 28 | no obviously effect on prolonging the latent period of cough and reducing the cough times | 25.24 ± 4.53 | 26.04 ± 4.37 | 32.56 ± 5.17 | 20 ± 4.24 | 31.28 ± 6.42 | 21.1 ± 3.98 | –
OC[C@@H](O)CN1CCN(c2ccccc2)CC1 [Levodropropizine tablet, levodropropizine] | 92 | 8 | 17 | 15 | 60 | effects of prolonging latent period of cough and reducing cough times | 25.41 ± 5.26 | 25.89 ± 4.06 | 40.27 ± 5.29 | 17.2 ± 3.45 | 42.38 ± 5.98 | 17.6 ± 3.97 | Cough times before administration (in 5 min) (guinea pigs; 30 mg/kg group, 1 h group): 25.14 ± 4.37 in 5 min; Cough times before administration (in 5 min) (guinea pigs; 30 mg/kg group, 4 h group): 25.74 ± 3.71 in 5 min; Latent period of cough (guinea pigs; [4]): 36.34 ± 4.68 s; cough count (guinea pigs; [4]): 19.4 ± 5.03; Latent period of cough (guinea pigs; [5]): 38.16 ± 5.88 s; cough count (guinea pigs; [5]): 19.1 ± 4.15; Cough times before administration (in 5 min) (guinea pigs; 120 mg/kg group, 1 h group): 25.18 ± 5.31 in 5 min; Cough times before administration (in 5 min) (guinea pigs; 120 mg/kg group, 4 h group): 26.27 ± 3.98 in 5 min; Latent period of cough (guinea pigs; [6]): 42.18 ± 3.18 s; cough count (guinea pigs; [6]): 15.1 ± 3.97; Latent period of cough (guinea pigs; [7]): 49.57 ± 6.87 s; cough count (guinea pigs; [7]): 14.2 ± 4.25
